Target: T1, human mGluR2 receptor (Homo sapiens, UniProt Q14416)
T1 construct: expressed in transfected cells; host or cells: CHO cells (membranes)
Test: [35S]GTPγS binding assay, mGluR2 positive allosteric modulation (PAM)
Assay type: biochemical
Conditions: membranes from CHO cells transfected with human mGluR2, in presence of glutamate at EC20
Method: The [^35S]GTPγS binding assay is a functional membrane-based assay used to study G-protein coupled receptor (GPCR) function whereby incorporation of a non-hydrolysable form of GTP, [^35S]GTPγS (guanosine 5′-triphosphate, labelled with […] ^35S), is measured. The G-protein α subunit catalyzes the exchange of guanosine 5′-diphosphate (GDP) by guanosine triphosphate (GTP) and on activation of the GPCR by an agonist, [^35S]GTPγS, becomes incorporated and cannot be cleaved to continue the exchange cycle (Harper (1998) Current Protocols in Pharmacology 2.6.1-10, John Wiley & Sons, Inc.). […] Here we describe the use of the [^35S]GTPγS binding assay using membranes from cells transfected with the human mGluR2 receptor and adapted from Schaffhauser et al. ((2003) Molecular Pharmacology 4:798-810) for the detection of the positive allosteric modulation (PAM) properties of the compounds of this invention.
CHO-cells were cultured to pre-confluence and stimulated with 5 mM butyrate for 24 h. Cells were then collected by scraping in PBS and cell suspension was centrifuged (10 min at 4000 RPM in benchtop centrifuge). Supernatant was discarded and pellet gently resuspended in 50 mM Tris-HCl, pH 7.4 by mixing with a vortex and pipetting up and down. The suspension was centrifuged at 16,000 RPM (Sorvall RC-5C plus rotor SS-34) for 10 minutes and the supernatant discarded. The pellet was homogenized in 5 mM Tris-HCl, pH 7.4 using an ultra-turrax homogenizer and centrifuged again (18,000 RPM, 20 min, 4° C.). The final pellet was resuspended in 50 mM Tris-HCl, pH 7.4 and stored at −80° C. in appropriate aliquots before use. Protein concentration was determined by the Bradford method (Bio-Rad, USA) with bovine serum albumin as standard.
Measurement of mGluR2 positive allosteric modulatory activity of test compounds was performed as follows. Test compounds and glutamate were diluted in assay buffer containing 10 mM HEPES acid, 10 mM HEPES salt, pH 7.4, 100 mM NaCl, 3 mM MgCl2 and 10 μM GDP. Human mGlu2 receptor-containing membranes were thawed on ice and diluted in assay buffer supplemented with 14 μg/ml saponin. Membranes were pre-incubated with compound alone or together with a predefined (˜EC20) concentration of glutamate (PAM assay) for 30 min at 30° C. After addition of [^35S]GTPγS (f.c. 0.1 nM), assay mixtures were shaken briefly and further incubated to allow [^35S]GTPγS incorporation on activation (30 minutes, 30° C.). Final assay mixtures contained 7 μg of membrane protein in 10 mM HEPES acid, 10 mM HEPES salt, pH 7.4, 100 mM NaCl, 3 mM MgCl2, 10 μM GDP and 10 μg/ml saponin. Total reaction volume was 200 μl. Reactions were terminated by rapid filtration through Unifilter-96 GF/B plates (Perkin Elmer, Mass., USA) using a 96-well filtermate universal harvester. Filters were washed 6 times with ice-cold 10 mM NaH2PO4/10 mM Na2HPO4, pH 7.4. Filters were then air-dried, and 40 μl of liquid scintillation cocktail (Microscint-O) was added to each well. Membrane-bound radioactivity was counted in a Microplate Scintillation and Luminescence Counter from Perkin Elmer.
The concentration-response curves of representative compounds of the present invention-obtained in the presence of EC20 of mGluR2 agonist glutamate to determine positive allosteric modulation (PAM)-were generated using the Lexis software interface (developed at J&J).

T1 sequence (Q14416 19-872): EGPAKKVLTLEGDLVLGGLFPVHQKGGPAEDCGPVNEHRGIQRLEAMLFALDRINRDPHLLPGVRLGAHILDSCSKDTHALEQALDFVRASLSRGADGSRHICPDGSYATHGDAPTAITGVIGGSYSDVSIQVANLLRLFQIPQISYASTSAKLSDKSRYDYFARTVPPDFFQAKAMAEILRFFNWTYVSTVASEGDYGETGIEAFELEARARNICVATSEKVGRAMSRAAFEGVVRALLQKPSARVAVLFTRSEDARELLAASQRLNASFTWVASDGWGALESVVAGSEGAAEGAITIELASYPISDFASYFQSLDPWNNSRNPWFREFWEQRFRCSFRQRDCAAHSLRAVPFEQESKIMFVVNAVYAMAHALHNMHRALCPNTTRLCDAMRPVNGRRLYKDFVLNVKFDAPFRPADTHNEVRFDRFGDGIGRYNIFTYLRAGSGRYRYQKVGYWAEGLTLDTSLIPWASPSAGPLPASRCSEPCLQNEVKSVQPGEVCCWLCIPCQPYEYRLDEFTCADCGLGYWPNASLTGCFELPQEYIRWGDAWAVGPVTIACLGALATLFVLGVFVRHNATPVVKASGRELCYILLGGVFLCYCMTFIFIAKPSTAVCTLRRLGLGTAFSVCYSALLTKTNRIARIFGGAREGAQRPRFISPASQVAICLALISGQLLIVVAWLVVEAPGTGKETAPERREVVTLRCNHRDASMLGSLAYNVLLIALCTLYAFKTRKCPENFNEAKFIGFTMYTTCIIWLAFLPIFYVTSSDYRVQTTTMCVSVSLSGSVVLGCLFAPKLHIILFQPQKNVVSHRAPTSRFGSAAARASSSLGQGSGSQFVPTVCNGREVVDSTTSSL

| EC50 (-log EC50 with EC50 in M, read-out: GTPγS - hmGluR2 PAM pEC50 (converted)) [nM] | GTPγS - hmGluR2 PAM Emax (maximal % effect relative to the control glutamate response) [%] | Emax (maximal % effect relative to the control glutamate response, read-out: GTPγS - hmGluR2 PAM Emax) [%] | SMILES |
| --- | --- | --- | --- |
| 912 | 320 |  | Fc1ccc(C2CN(Cc3ccn4c(CC5CC5)nnc4c3C(F)(F)F)CCN2)c(F)c1 (single isomer, unassigned) [Compound 19a, 3-(Cyclopropylmethyl)-7-{[(3*R)-3-(2,4-difluorophenyl)piperazin-1-yl]methyl}-8-(trifluoromethyl)[1,2,4]triazolo[4,3-a]pyridine] |
|  |  | 199 | CN1CCN(Cc2ccn3c(CC4CC4)nnc3c2C(F)(F)F)CC1c1ccccc1 (single isomer, unassigned) [Compound 7a, 3-(Cyclopropylmethyl)-7-[(4-methyl-3-phenyl-1-piperazinyl)methyl]-8-(trifluoromethyl)-1,2,4-triazolo[4,3-a]pyridine (*R)] |
